The record followed here is PubChem BioAssay AID1996.

In brackets after ≈: the same amount, converted by molar mass.

The conditions of this data set: buffer; pH 7.4; 200.0 µM.
In the case of `Cl.N=C(N=C(N)N)N1CCOCC1`, the kinetic solubility (as a rule, solubility judged after dilution from a stock solution rather than from solid) is more than 31.1 µg/mL.
`O=C(/C=C/c1ccc([N+](=O)[O-])cc1)OCC(=O)N1CCCC1` yielded a kinetic solubility of more than 45.6 µg/mL.
As to `CC(C)c1ccccc1NC(=O)Nc1ccc2c(c1)OCO2`, the kinetic solubility came to 2.7 µg/mL (≈ 9.05 µM).
Compound `Cc1ccc(Nc2nc(N)nc(CCl)n2)cc1` had a kinetic solubility of more than 37.5 µg/mL.
`Cc1ccc(S(=O)(=O)NC(=O)Nc2ccc(C)cn2)cc1`: the solubility (kinetic) was more than 45.8 µg/mL.
As for `Cc1cc(C)cc(OCC(=O)Nc2ccc(CN3CCCCC3)cc2)c1`, the kinetic solubility was 49.9 µg/mL (≈ 142 µM).
As for `Cc1ccc(S(=O)(=O)NCc2cccnc2)cc1C`, the solubility (kinetic) is more than 41.5 µg/mL.
The compound `[O-][n+]1ccccc1/C=C/c1ccccc1` showed a kinetic solubility of more than 29.6 µg/mL.
Turning to `Cc1cccc(C(=O)N[C@@H](C)C(=O)N2CCN(c3ncccn3)CC2)c1`, the kinetic solubility was more than 53 µg/mL.
In turn, `COc1ccc(NC(=O)C2=C(C)NC(=O)NC2c2ccccc2[N+](=O)[O-])cc1` (configuration not stated) had a kinetic solubility of 57.1 µg/mL (≈ 149 µM).
For `O=C(COC(=O)c1c(Cl)cccc1Cl)NCC1CCCO1` (configuration not stated) the value was more than 49.8 µg/mL; for `CCCCCSc1ncccc1C(=O)O`, more than 33.8 µg/mL; for `O=C(COC(=O)c1ccncc1)c1ccccc1`, more than 36.2 µg/mL.
`Cc1cnc(=O)[nH]c1SCc1cccc(C(F)(F)F)c1` registered a kinetic solubility of 8.3 µg/mL (≈ 27.6 µM).
With `ClC1(Cl)CC1Cn1cnc2ccccc21` (configuration not stated), the solubility (kinetic) is 33.4 µg/mL (≈ 139 µM).
For `CN(C)C(CNC(=O)c1cc2ccccc2o1)c1ccco1` (configuration not stated) the value was more than 44.8 µg/mL.
Compound `Cc1[nH]c2ccccc2c1C(=O)CCl` displayed a solubility (kinetic) of 12.1 µg/mL (≈ 58.3 µM).
Consider `CN(C)/C=N/NC(=O)C1Cc2c(ccc3ccccc23)O1` (configuration not stated), for which the solubility (kinetic) is more than 42.5 µg/mL.
As to `CCOc1ccc(-n2ccnc(SCC(=O)NC3CCCC3)c2=O)cc1`, the solubility (kinetic) is 32.6 µg/mL (≈ 87.3 µM).
The result for `COc1ccc(Cl)cc1NC(=O)CN(C)C(=O)C1COc2ccccc2O1` (configuration not stated) reads 43.1 µg/mL (≈ 110 µM); that for `Oc1ccc(-c2cn3ccccc3n2)cc1O`, 24 µg/mL (≈ 106 µM); that for `COc1ccc(NC(=O)Nc2c(C)noc2-c2ccccc2)cc1`, 7.5 µg/mL (≈ 23.2 µM).
The result for `Cc1cc(NS(=O)(=O)c2cc(Cl)sc2Cl)no1` reads more than 47 µg/mL.
`COc1ccc(-c2c(C#N)sc(C(N)=O)c2-c2ccc(OC)cc2)cc1` yielded a kinetic solubility of less than 0.4 µg/mL.
Consider `COc1ccc(N(Cc2cc(=O)[nH]c3ccccc23)C(C)=O)cc1`, for which the solubility (kinetic) is more than 48.4 µg/mL.
For `CN(C)/C=N/c1nccc(-c2cccs2)n1` the value was more than 34.8 µg/mL; for `O=C(COc1cccnc1[N+](=O)[O-])Nc1cccc(Br)c1`, 2.7 µg/mL (≈ 7.67 µM); for `Cc1ccccc1NC(=O)Cc1nc(COC(=O)c2ccc(NC(N)=O)cc2)cs1`, 17.6 µg/mL (≈ 41.5 µM).
For `CC1CC(C)CN(C(=O)COC(=O)COc2ccc(C#N)cc2)C1` (configuration not stated) the value was 43.5 µg/mL (≈ 132 µM); for `CCOC(=O)C(CC(=O)O)NCc1ccco1` (configuration not stated), 34.3 µg/mL (≈ 142 µM).
`COc1ccc(/C=C\c2nc(O)c([N+](=O)[O-])c(=O)[nH]2)cc1O` registered a kinetic solubility of more than 45.8 µg/mL.
As to `C[N+](C)(C)Cc1ccccc1.[Cl-]`, the solubility (kinetic) is more than 27.9 µg/mL.
In turn, `CCOCCCN1CC(C(=O)NCc2ccc3c(c2)OCO3)CC1=O` (configuration not stated) showed a kinetic solubility of more than 52.3 µg/mL.
The compound `O=C(O)Cn1cnc2scc(-c3ccccc3)c2c1=O` displayed a solubility (kinetic) of more than 42.9 µg/mL.
Take `Cc1ccc(NC(/C=C/N(C)C)=C/C(=O)C(F)(F)F)c(C)c1`: the solubility (kinetic) stood at 37.8 µg/mL (≈ 121 µM).
Compound `Cc1ccsc1/C=C1/SC(=O)N(CC(=O)N2CCCC2)C1=O` gave a solubility (kinetic) of 5.9 µg/mL (≈ 17.5 µM).
For `Nc1c(C(=O)N2CCCCC2)sc2nc3c(cc12)CCCC3` the value was 41.7 µg/mL (≈ 132 µM).
The compound `O=[N+]([O-])c1cc(O)c(O)c([N+](=O)[O-])c1` gave a kinetic solubility of more than 30 µg/mL.
`C=CCN1C(=O)/C(=C2/Sc3ccccc3N2CC)SC1=S`: the solubility (kinetic) is less than 0.4 µg/mL.
Compound `CSc1ccccc1NC(=O)CN1c2ccccc2CC1C` (configuration not stated) yielded a kinetic solubility of 11.9 µg/mL (≈ 38.1 µM).
In turn, `Cc1cc(C(C)(C)C)cc(C)c1S(=O)(=O)N1CC(=O)Nc2ccccc21` gave a solubility (kinetic) of 5.7 µg/mL (≈ 15.3 µM).
`COc1ccc2ccc(OCC(=O)Nc3cc(C)on3)cc2c1` displayed a solubility (kinetic) of 12.4 µg/mL (≈ 39.7 µM).
`Cc1ccc(NC(=S)c2ccncc2)cc1` had a kinetic solubility of 33.5 µg/mL (≈ 147 µM).
Compound `CCOc1ccc(CNCc2ccccc2Cl)cc1.Cl` displayed a kinetic solubility of 31.6 µg/mL.
The result for `CCCN(CC(=O)Nc1ccccc1C)C(=O)c1cc(C)oc1C` reads more than 49.3 µg/mL.
With `OCC1(CCOc2ccccc2)CCN(Cc2ccncc2)CC1`, the solubility (kinetic) came out at 39 µg/mL (≈ 119 µM).
Regarding `O=C1CCCCCCCCCC/C(=N\O)CCCO1`, the kinetic solubility is 9.8 µg/mL (≈ 36.4 µM).
The compound `CC1CCC2(CC1)NC(=O)N(CC(=O)N1c3ccccc3CC1C)C2=O` (configuration not stated) yielded a solubility (kinetic) of 5.2 µg/mL (≈ 14.6 µM).
The result for `O=C(COC(=O)C1CC1)Nc1ccc(Cl)cc1Cl` reads 41.9 µg/mL (≈ 145 µM).
The result for `O=C(Nc1cccc([N+](=O)[O-])c1)C1C2CCCCC21` (configuration not stated) reads 0.5 µg/mL (≈ 1.92 µM); that for `Cc1ccc(CONS(=O)(=O)c2cc(C)ccc2C)cc1`, 5.2 µg/mL (≈ 17 µM); that for `O=C(CN1CCOCC1)NNC(=S)Nc1ccccc1`, more than 44.2 µg/mL.
